Laboratory results reported in publication PMC8431481, “Peptide Derivatives of the Zonulin Inhibitor Larazotide (AT1001) as Potential Anti SARS-CoV-2: Molecular Modelling, Synthesis and Bioactivity Evaluation” (International Journal of Molecular Sciences, 2021).
Read-outs that look alike come from different tables or passages of the source. Where a SMILES comes first, the peptide text is derived from it. The star is where a group is joined. Piv = CC(C)(C)C(=O)*

Key:
[1] = molecular target: T1, recombinant SARS-CoV-2 M^pro (Severe acute respiratory syndrome coronavirus 2, UniProt P0DTD1); format: biochemical; settings: relative to concentration range 0.1–1 µM
T1 construct: The virus enzyme, called 3CLpro or main protease (M^pro), is essential for viral replication; purchased Proteros

[2] = system: SARS-CoV-2 clinical strain UC-1075; settings: clinical strain UC-1075, 24 h
[3] = system: human cytomegalovirus (HCMV) strain Davis; settings: read-out: Antiviral Activity (EC50) Davis Strain; HEL cells, virus input 100 CCID50
in vitro = settings: African green monkey
[4] = system: SARS-CoV-2 clinical strain UC-1074; settings: for EC50: clinical strain UC-1074, 24 h; for activity against SARS-CoV-2 (in words): Vero cells, strains UC-1074 and UC-1075
[5] = system: thymidine kinase deficient (TK−) VZV strain 07−1; settings: read-out: Antiviral Activity (EC50) TK-VZV Strain 07–1; HEL cells, virus input 20 PFU
[6] = system: varicella-zoster virus (VZV) wild-type strain Oka; settings: read-out: Antiviral Activity (EC50) TK+ VZV Strain OKA; HEL cells, virus input 20 PFU
[7] = system: human cytomegalovirus (HCMV) strain AD-169; settings: read-out: Antiviral Activity (EC50) AD-169 Strain; HEL cells, virus input 100 CCID50
[8] = system: human embryonic lung (HEL) fibroblasts; assay: Cytotoxicity, cell morphology (MCC) in HEL cells
SARS-CoV-2 = settings: read-out: EC50 (reported value); cited from earlier work
[9] = system: varicella-zoster virus (VZV) wild-type strain Oka; assay: microbe, parasite or virus in culture; settings: Human alphaherpesvirus 3, HEL, read-out: Antiviral Activity (EC50) TK+ VZV Strain OKA
[10] = system: human embryonic lung (HEL) fibroblasts; assay: Cytostatic activity, cell growth (CC50) in HEL cells; settings: read-out: Cytotoxicity Cell Growth (CC50); HEL cells, Table 3 (VZV tests)
[11] = as above; settings: human, HEL 299 human embryonic lung fibroblasts
[12] = system: human cytomegalovirus (HCMV) strain Davis; assay: microbe, parasite or virus in culture; settings: Human betaherpesvirus 5, HEL, read-out: Antiviral Activity (EC50) Davis Strain
[13] = system: human cytomegalovirus (HCMV) strain AD-169; assay: microbe, parasite or virus in culture; settings: Human betaherpesvirus 5, AD169, HEL, read-out: Antiviral Activity (EC50) AD-169 Strain
[14] = system: SARS-CoV-2 clinical strain UC-1075; assay: microbe, parasite or virus in culture; settings: Severe acute respiratory syndrome coronavirus 2, UC1075, Vero, 120 h, read-out: Antiviral Activity (EC50) UC-1075
[15] = system: SARS-CoV-2 clinical strain UC-1074; assay: microbe, parasite or virus in culture; settings: Severe acute respiratory syndrome coronavirus 2, UC1074, Vero, 120 h, read-out: Antiviral Activity (EC50) UC-1074

| Compound | Inhibition [1] | EC50 [2] | EC50 [3] | CC50 (in vitro) | EC50 [4] | EC50 [5] | EC50 [6] | EC50 [7] | Cytotoxicity Cell Morphology (MCC) ([8]; Table 2 (HCMV tests)) | Cytotoxicity Cell Morphology (MCC) ([8]; Table 3 (VZV tests)) | Cytotoxicity Cell Morphology (MCC) (Vero cells; Vero cells) | further results |
| --- | --- | --- | --- | --- | --- | --- | --- | --- | --- | --- | --- | --- |
| CC(C)C[C@H](NC(=O)[C@@H](NC(=O)CNC(=O)CN)C(C)C)C(=O)N[C@H](C(=O)N[C@@H](CCC(N)=O)C(=O)N1CCC[C@H]1C(=O)NCC(=O)O)C(C)C [AT1001 (1), Larazotide acetate, reference compound] (H-GGVLVQPG-OH) | 27.7 ± 0.2% | > 20 µM | > 20 µM | 82.5 ± 6.2 µM | > 20 µM | 59.1 µM | 44.1 µM | > 20 µM | ≥100 µM | ≥100 µM |  | Cytotoxicity Cell Morphology (MCC) (Vero cells): 100 µM |
| Cc1cc(C(=O)NC(C)C(=O)NC(C(=O)NC(CC(C)C)C(=O)NC(C=CC(=O)OCc2ccccc2)CC2CCNC2=O)C(C)C)no1 (stereo not shown) [Peptide N3] |  |  |  |  |  |  |  |  |  |  |  | EC50 (SARS-CoV-2): 16.8 ± 1.7 µM |
| Nc1nc2c(ncn2COCCO)c(=O)[nH]1 [Aciclovir] |  |  |  |  |  |  |  |  |  |  |  | EC50 [9]: 8.39 µM |
| O=c1[nH]c(=O)n([C@H]2C[C@H](O)[C@@H](CO)O2)cc1/C=C/Br [Birivudine, reference compound] |  |  |  |  |  | 2.13 µM | 0.23 ± 0.04 µM |  |  | >300.3 µM |  | CC50 [10]: > 300 µM |
| CNC(=O)[C@H](CCC(N)=O)NC(=O)[C@@H](NC(=O)[C@H](CC(C)C)NC(=O)[C@@H](NC(=O)CNC(C)=O)C(C)C)C(C)C [Peptide 5, Ac-GVLVQ-NHCH3] (Ac-GVLVQ-NHMe) | 27.0 ± 1.1% | > 20 µM | > 100 µM | 75 ± 2.2 µM | > 20 µM | > 100 µM | 59.8 µM | > 20 µM | ≥100 µM | >100 µM | 100 µM | activity against SARS-CoV-2 (in words) [4]: negligible activity |
| CNC(=O)CNC(=O)[C@@H]1CCCN1C(=O)[C@H](CCC(N)=O)NC(=O)[C@@H](NC(=O)[C@H](CC(C)C)NC(=O)[C@@H](NC(=O)CNC(=O)CNC(C)=O)C(C)C)C(C)C [Peptide 3] (Ac-GGVLVQPG-NHMe) | 27.4 ± 1.1% | > 20 µM | > 100 µM | 81.8 ± 2.1 µM | > 20 µM | 81.1 µM | 58.1 µM | > 20 µM | ≥20 µM | >100 µM | 100 µM | activity against SARS-CoV-2 (in words) [4]: negligible activity |
| CC(=O)NCC(=O)NCC(=O)N[C@H](C(=O)N[C@@H](CC(C)C)C(=O)N[C@H](C(=O)N[C@@H](CCC(N)=O)C(=O)N1CCC[C@H]1C(=O)NCC(N)=O)C(C)C)C(C)C [Peptide 2] (Ac-GGVLVQPG-NH2) | 27.1 ± 0.5% | > 20 µM | > 20 µM | 83 ± 17 µM |  | 48.4 µM | 50.1 µM | > 20 µM | ≥20 µM | >100 µM | 100 µM |  |
| CNC(=O)[C@@H](NC(=O)[C@H](CC(C)C)NC(=O)[C@@H](NC(=O)CNC(C)=O)C(C)C)C(C)C [Peptide 6, Ac-GVLV-NHCH3] (Ac-GVLV-NHMe) | 25.0 ± 0.5% | > 20 µM | > 20 µM | 77.4 ± 0.7 µM | ≥ 20 µM | > 20 µM | > 20 µM | > 4 µM | ≥20 µM | 100 µM | 100 µM |  |
| Nc1ccn(C[C@@H](CO)OCP(=O)(O)O)c(=O)n1 [Cidofovir] |  |  |  |  |  |  |  |  | ≥317 µM |  |  | CC50 at 3 days [11]: 159 ± 76.5 µM; EC50 [12]: 0.67 ± 0.49 µM; EC50 [13]: 1.27 ± 0.18 µM |
| CCC(CC)COC(=O)[C@H](C)N[P@](=O)(OC[C@H]1O[C@@](C#N)(c2ccc3c(N)ncnn23)[C@H](O)[C@@H]1O)Oc1ccccc1 [Remdesivir, reference compound] |  |  |  | 70.6 ± 4.9 µM |  |  |  |  |  |  | 100 µM | EC50 [14]: 1.06 ± 0.44 µM; EC50 [15]: 0.89 ± 0.44 µM |
| Nc1nc(O)c2ncn(COC(CO)CO)c2n1 [Ganciclovir] |  |  |  |  |  |  |  |  | ≥394 µM |  |  | CC50 at 3 days [11]: 350 µM; EC50 [12]: 1.18 µM; EC50 [13]: 2.56 ± 0.23 µM |
| CNC(=O)CNC(=O)[C@@H]1CCCN1C(=O)[C@H](CCC(N)=O)NC(=O)[C@@H](NC(=O)[C@H](CC(C)C)NC(=O)[C@@H](NC(=O)CNC(=O)CNC(=O)C(C)(C)C)C(C)C)C(C)C [Peptide 4] (Piv-GGVLVQPG-NHMe) | 26.2 ± 0.3% | > 20 µM | 100 µM | 74.9 ± 4.9 µM | ≥ 20 µM | > 100 µM | 78.2 µM | > 20 µM | 100 µM | ≥100 µM | 100 µM |  |
